Biological target: T1, Adenosine deaminase (Bos taurus, UniProt P56658)
T1 sequence (P56658 whole entry): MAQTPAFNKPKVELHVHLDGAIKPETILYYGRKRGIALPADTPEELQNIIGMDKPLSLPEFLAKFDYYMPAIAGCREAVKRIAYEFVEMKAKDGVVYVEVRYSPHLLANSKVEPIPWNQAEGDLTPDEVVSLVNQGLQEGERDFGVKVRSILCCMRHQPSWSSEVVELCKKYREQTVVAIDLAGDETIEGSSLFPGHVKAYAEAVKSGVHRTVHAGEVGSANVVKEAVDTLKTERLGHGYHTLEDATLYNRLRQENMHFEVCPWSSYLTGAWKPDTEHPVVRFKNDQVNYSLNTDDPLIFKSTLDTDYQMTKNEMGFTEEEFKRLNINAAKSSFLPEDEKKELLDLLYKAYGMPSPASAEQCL
Assay: Binding affinity against Adenosine deaminase from calf intestinal mucosa was determined
Type: tissue-based

- Ki: 10 nM
SMILES: CCCCCC[C@@H]([C@@H](C)O)n1cnc2c(N)ncnc21 [EHNA]
